Read-outs that look alike come from different tables or passages of the source.

For data set [1], the target named is T1, TRPC5 (Homo sapiens, UniProt Q9UL62).
T1 construct: expressed in transfected cells
T1 sequence (Q9UL62 1-973): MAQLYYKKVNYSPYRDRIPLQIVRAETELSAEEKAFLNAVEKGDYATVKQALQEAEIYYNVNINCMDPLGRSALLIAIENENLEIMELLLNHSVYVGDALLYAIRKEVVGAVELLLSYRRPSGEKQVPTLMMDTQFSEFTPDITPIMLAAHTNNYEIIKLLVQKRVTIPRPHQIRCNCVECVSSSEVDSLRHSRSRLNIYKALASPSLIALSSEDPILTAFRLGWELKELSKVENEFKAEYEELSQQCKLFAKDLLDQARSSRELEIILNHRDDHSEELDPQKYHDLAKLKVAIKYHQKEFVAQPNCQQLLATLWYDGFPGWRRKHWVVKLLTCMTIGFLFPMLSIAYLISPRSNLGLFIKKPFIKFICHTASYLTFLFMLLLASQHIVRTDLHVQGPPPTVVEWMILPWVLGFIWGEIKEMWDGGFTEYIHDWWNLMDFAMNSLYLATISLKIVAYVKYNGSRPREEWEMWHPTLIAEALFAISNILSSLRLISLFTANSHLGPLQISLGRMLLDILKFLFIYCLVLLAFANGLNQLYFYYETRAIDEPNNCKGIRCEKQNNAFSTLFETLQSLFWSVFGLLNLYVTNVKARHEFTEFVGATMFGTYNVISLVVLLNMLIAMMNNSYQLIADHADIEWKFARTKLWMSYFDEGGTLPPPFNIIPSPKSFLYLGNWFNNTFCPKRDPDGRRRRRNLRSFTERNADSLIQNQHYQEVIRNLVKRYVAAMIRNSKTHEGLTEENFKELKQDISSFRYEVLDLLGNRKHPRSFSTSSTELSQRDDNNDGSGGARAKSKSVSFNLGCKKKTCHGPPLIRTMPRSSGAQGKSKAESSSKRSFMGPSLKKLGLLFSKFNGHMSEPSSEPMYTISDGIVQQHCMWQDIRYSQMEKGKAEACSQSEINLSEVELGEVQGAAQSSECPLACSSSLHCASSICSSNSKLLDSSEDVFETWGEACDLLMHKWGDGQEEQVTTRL
In words: Automated patch clamp assay, HEK293 cells overexpressing TRPC5, current block after rosiglitazone stimulation. Type of data set: cell-based. The settings on record: whole cell automated patch. In general terms: In patch-clamp work, channel activity is measured electrically.

Data set [2] deals with deoxycorticosterone acetate (DOCA)-salt hypertensive rats. The data set is described as follows: Albuminuria in DOCA-salt hypertensive rats. Type of data set: in vivo, Sprague Dawley rats. From the text:
The aim of this study was to evaluate the effects of the TRCP5 inhibitor, AO, to attenuate the development and/or progression of albuminuria in deoxycorticosterone acetate (DOCA)-salt hypertensive rats.
The DOCA-salt hypertensive rat model is a well-established model of mineralocorticoid hypertension with renal dysfunction, characterized by increase levels of urinary protein and albumin excretion. [Schenk et al., “The pathogenesis of DOCA-salt hypertension,” J. Pharmacol. Toxicol. Methods (May 1992) 27(3):161-170; Gomez-Sanchez et al., “Mineralocorticoids, salt and high blood pressure,” Steroids (1996) 61:184-188.]
Six to seven weeks old Sprague Dawley rats were unilaterally nephrectomized; after one-week recovery, rats were implanted with a DOCA pellet (45 mg) and provided tap water containing 0.9% NaCl and 0.2% KCl (Day 1) for a 3 weeks treatment. On Day 1, DOCA-salt rats received one daily dose, subcutaneously (SC), of AO at 30 mg/kg for 3 weeks; control animals for DOCA treatment were administered vehicle or eplerenone, an aldosterone blocker; sham animals, implanted with a silicone-water pellet, were given tap water and received SC administration of the vehicle. Proteinuria, albuminuria and arterial blood pressure as well as body weight were recorded every week.

Data set [3] deals with murine podocytes. The data set is described as follows: Murine podocytes with protamine sulfate injury. Type of data set: cell-based. The following applies: pretreated 0.1, 1, 10 uM for 20 minutes, 300 ug/mL protamine sulfate 1 hour. How it is done: Conditionally immortalized murine podocytes were differentiated for 14 days in gamma-interferon-free media[Synaptopodin Is a Coincidence Detector of Tyrosine versus Serine/Threonine Phosphorylation for the Modulation of Rho Protein Crosstalk in Podocytes. Buvall L, Wallentin H, Sieber J, Andreeva S, Choi H Y, Mundel P, Greka A. J Am Soc Nephrol. 2017 March; 28(3):837-851. doi: 10.1681/ASN.2016040414. Epub 2016 Sep. 14.]. Murine podocyte cells were pretreated with 0.1, 1, 10 uM of AO or DMSO for 20 minutes then insulted with 300 ug/mL of protamine sulfate (PS) for 1 hour; 3 technical replicate plates were treated for each condition. Murine cells were washed with 1×DPBS −/−, fixed in 4% PFA+4% sucrose for 10 minutes at room temperature, washed 3 times with 1×DPBS −/−, permeabilized with 0.3% triton, and probed for phalloidin, synaptopodin, and DAPI (Proteasomal degradation of Nck1 but not Nck2 regulates RhoA activation and actin dynamics. Buvall L, Rashmi P, Lopez-Rivera E, Andreeva S, Weins A, Wallentin H, Greka A, Mundel P. Nat Commun. (2013) 4:2863. doi: 10.1038/ncomms3863.). Tiled images were acquired using a Zeiss LSM880 Airyscan super resolution confocal microscope using ZEN 2.3. Manual quantitation of cells with or without collapsed actin cytoskeleton were quantified. […]

Where [4] appears, read: DOCA-AO compared to sham animals, week 1 to 3.
Where [5] appears, read: DOCA-salt treatment followed by AO.

As for `O=C1CN(c2cn[nH]c(=O)c2Cl)CCN1Cc1ccccc1C(F)(F)F` [AO], the IC50 in data set [1] (80 mV, read-out: TRPC5_QP_XC50_80) lay within 0.01 to 1000 nM. Further, the IC50 in data set [1] (100 mV, read-out: TRPC5_QP_X50_100) fell in the range of 0.01 to 1000 nM. For the same compound, in data set [2] (30 mg/kg SC daily, week 1 to week 3, vs DOCA-vehicle control rats, significance at week 3 (p value 0.0011)), the urinary albumin excretion result is reported as “attenuated”. Further, in data set [2] (30 mg/kg SC once daily for 3 weeks), the adverse effects entry was “No adverse effects were observed”. Moreover, the body weight entry in data set [2] (DOCA vs DOCA-AO, 30 mg/kg SC once daily for 3 weeks) was “no significant difference”. Further, in data set [2] (setting [4]), the “diastolic BP” value is reported as “elevated”, the “mean arterial blood pressure (BP)” value is reported as “elevated” and the “systolic BP” value is reported as “elevated”. Moreover, in data set [2] (setting [5]), the “urine volume produced per day” value is “elevated” and the water intake result is recorded as “elevated”. Moreover, the “murine cells protected from cytoskeletal collapse induced by protamine sulfate” value in data set [3] is on record as about 20%.

(Values after US20220152031A1, “PYRIDAZINONES AND METHODS OF USE THEREOF” (Goldfinch Bio, Inc., priority 2019, published 2022).)
